Drawing on ChEMBL document CHEMBL1150165, “Antineoplastic agents. 489. Isolation and structures of meliastatins 1-5 and related euphane triterpenes from the tree Melia dubia” (2002), this text covers EC50 and GI50 for eleven molecules.

Type in all cases: functional
One experiment concerns P388. The experiment is described as follows: Growth inhibition of mouse P388 cells. The settings on record: read-out: ED50 (the source's name).
The subject of another experiment is MCF7. The experiment can be described thus: Growth inhibition of human MCF7 cells.
For the next experiment, the system named is KM-20L2. The experiment is described as follows: Growth inhibition of human KM20L2 cells.
The next experiment concerns DU-145. The experiment can be described thus: Growth inhibition of human DU145 cells.
For another experiment, the system named is NCI-H460. The experiment can be described thus: Growth inhibition of human NCI-H460 cells.
Another experiment concerns SF-268. The experiment can be described thus: Growth inhibition of human SF268 cells.
The subject of the next experiment is BXPC-3. The experiment is described as follows: Growth inhibition of human BxPC3 cells.

≈ marks a conversion by molar mass, not a printed value.

`CC(C)=CCC[C@@H](C)[C@@H]1[C@@H](O)C[C@]2(C)C3=CC[C@H]4C(C)(C)[C@@H](O)CC[C@]4(C)[C@H]3CC[C@@]12C`: the EC50 in the experiment on P388 was 2.5 mg/L (≈ 5.65 µM).
The same measure, in the same setting: the value for `C=C(C)[C@@H]1CCC([C@@H]2[C@@H](O)C[C@]3(C)C4=CC[C@H]5C(C)(C)C(=O)CC[C@]5(C)[C@H]4CC[C@@]23C)C(=O)O1` (stereo not given in full) [DUBIONE B] was 20.5 mg/L (≈ 43.7 µM); that for `O=c1[nH]cc(F)c(=O)[nH]1` [FLUOROURACIL] was 0.075 mg/L (≈ 0.577 µM).
On the same count and under the same terms, the result for `CC(C)=CCC[C@H]1C(=O)O[C@H]2C[C@]3(C)C4=CC[C@H]5C(C)(C)C(=O)CC[C@]5(C)[C@H]4CC[C@@]3(C)[C@@H]21` [KULACTONE] reads 6.2 mg/L (≈ 13.7 µM).
`CC(C)=CCC[C@@H](C)[C@@H]1[C@@H](O)C[C@]2(C)C3=CC[C@H]4C(C)(C)C(=O)CC[C@]4(C)[C@H]3CC[C@@]12C` [KULINONE]: the EC50 in the experiment on P388 is 4.6 mg/L (≈ 10.4 µM). The GI50 was found to be 3.6 mg/L (≈ 8.17 µM) with MCF7; 3.6 mg/L (≈ 8.17 µM) in the experiment on KM-20L2; 3.6 mg/L (≈ 8.17 µM) in the experiment on DU-145; 3.6 mg/L (≈ 8.17 µM) in the experiment with NCI-H460; 3.6 mg/L (≈ 8.17 µM) with SF-268; 3.61 mg/L (≈ 8.19 µM) with BXPC-3.
Regarding `C[C@H](C/C=C/C(C)(C)O)[C@@H]1[C@@H](O)C[C@]2(C)C3=CC[C@H]4C(C)(C)C(=O)CC[C@]4(C)[C@H]3CC[C@@]12C` [MELIASTATIN 1], the EC50 in the experiment with P388 was determined as 2.5 mg/L (≈ 5.47 µM). Also, the GI50 in the experiment with MCF7, in the experiment with KM-20L2, in the experiment on DU-145, in the experiment with NCI-H460, in the experiment with SF-268 and with BXPC-3 was 1.9 mg/L (≈ 4.16 µM) in each case.
Regarding `COC(=O)[C@H](C/C=C/C(C)(C)O)[C@@H]1[C@@H](O)C[C@]2(C)C3=CC[C@H]4C(C)(C)C(=O)CC[C@]4(C)[C@H]3CC[C@@]12C` [MELIASTATIN 2], the EC50 with P388 was determined as 5.6 mg/L (≈ 11.2 µM). The GI50 with MCF7, in the experiment with KM-20L2, with DU-145, with NCI-H460, in the experiment on SF-268 and in the experiment on BXPC-3 was 6.3 mg/L (≈ 12.6 µM) throughout.
As for `COC(=O)[C@H](C/C=C/C(C)(C)OO)[C@@H]1[C@@H](O)C[C@]2(C)C3=CC[C@H]4C(C)(C)C(=O)CC[C@]4(C)[C@H]3CC[C@@]12C` [MELIASTATIN 3], the EC50 in the experiment with P388 stood at 3.1 mg/L (≈ 6 µM).
The same measure, in the same setting: the value for `C=C(C)[C@@H](O)CC[C@@H](C(=O)OC)[C@@H]1[C@@H](O)C[C@]2(C)C3=CC[C@H]4C(C)(C)C(=O)CC[C@]4(C)[C@H]3CC[C@@]12C` [MELIASTATIN 4] was 2 mg/L (≈ 3.99 µM); that for `C=C(C)C(O)CC[C@@H](C)[C@@H]1[C@@H](O)C[C@]2(C)C3=CC[C@H]4C(C)(C)C(=O)CC[C@]4(C)[C@H]3CC[C@@]12C` (stereo not given in full) [MELIASTATIN 5] was 1.7 mg/L (≈ 3.72 µM).
With `COC(=O)[C@H](CCC=C(C)C)[C@@H]1[C@@H](O)C[C@]2(C)C3=CC[C@H]4C(C)(C)C(=O)CC[C@]4(C)[C@H]3CC[C@@]12C` [METHYL KULONATE], the EC50 in the experiment on P388 was 5.1 mg/L (≈ 10.5 µM). Further, the GI50 with MCF7, in the experiment on KM-20L2, with DU-145, in the experiment on NCI-H460, with SF-268 and in the experiment on BXPC-3 was 3.7 mg/L (≈ 7.63 µM) in each case.

By GI50 is commonly meant the concentration that inhibits growth by half.
